Measured values taken from BindingDB's records for PubMed 36262403 (Abbvie, 2022).

Molecular target: T1, P2X purinoceptor 7 (Rattus norvegicus, UniProt Q64663)
T1 sequence (Q64663 whole entry): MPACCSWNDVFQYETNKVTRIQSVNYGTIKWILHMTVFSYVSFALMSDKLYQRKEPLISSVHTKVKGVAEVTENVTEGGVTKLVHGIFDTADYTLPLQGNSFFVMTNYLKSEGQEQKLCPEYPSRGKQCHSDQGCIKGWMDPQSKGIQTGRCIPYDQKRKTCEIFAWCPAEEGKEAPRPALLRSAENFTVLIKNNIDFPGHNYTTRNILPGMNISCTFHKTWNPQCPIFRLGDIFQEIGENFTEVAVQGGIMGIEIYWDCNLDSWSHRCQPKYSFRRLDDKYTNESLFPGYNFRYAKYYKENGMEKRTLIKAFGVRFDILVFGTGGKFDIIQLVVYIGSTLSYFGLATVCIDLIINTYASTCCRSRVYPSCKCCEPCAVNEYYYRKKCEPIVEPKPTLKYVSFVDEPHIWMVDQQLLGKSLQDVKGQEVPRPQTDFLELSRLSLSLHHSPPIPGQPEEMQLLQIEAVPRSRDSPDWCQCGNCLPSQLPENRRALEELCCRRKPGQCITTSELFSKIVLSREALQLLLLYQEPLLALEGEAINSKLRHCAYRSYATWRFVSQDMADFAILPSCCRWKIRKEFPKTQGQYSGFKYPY
Test: Antagonist activity against rat P2X7R expressed in human 1321N1 cell membrane incubated for 1 hrs by radioligand binding assay

Compound `C[C@H](NC(=Nc1cccc2ncccc12)NC#N)c1ccccc1` [[3H]A-804598] has an IC50 of 10 nM.
